Reference: PubChem BioAssay AID1845213 (Molecular Pharmacology Branch, DTP, NCI, 2023)

Test system: NCI-H841 complex tumor spheroid viability
Experiment: Anticancer human tumor NCI-H841 cell line growth inhibition;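 further: spheroids exposed to compounds for 7 days before readout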;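 on viability, T/C: 100% = DMSO vehicle control wells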
Details: for IC50: curve of first compound; for viability, T/C: stronger effect = lower value
Text: Multicellular complex tumor spheroid response to DNA repair inhibitors in combination with DNA-damaging drugs
This study explores the anticancer activities of DNA-damaging drugs and inhibitors of DNA damage repair, both as single agents and in combinations. Complex tumor spheroids comprised of malignant cells, endothelial cells and mesenchymal stem cells served as an in vitro model for human solid tumors. This model system incorporates physiologically relevant features and patient-derived or established malignant cell lines with clinically relevant genetic alterations from many tumor types. Twenty-six patient-derived or established malignant cell lines were evaluated representing sarcoma, melanoma, small cell lung cancer (SCLC), non-small cell lung cancer (NSCLC), as well as bladder, ovarian and pancreatic cancers. The concentration ranges selected for each drug and investigational agent were based upon clinically achievable concentrations if the clinical Cmax of the agent was known.
Compounds. The drugs and compounds olaparib (NSC753686), talazoparib (NSC767125), berzosertib (NSC777718), elimusertib (NSC800525), nedisertib (NSC802822), VX-984 (NSC792969), AZD-1390 (NSC803789), temozolomide (NSC362856), topotecan (NSC609699), trabectedin (NSC813783), staurosporine (NSC755774), and gemcitabine (NSC613327) were obtained from the National Cancer Institute (NCI) Developmental Therapeutics Program Chemical Repository. The FDA-approved anticancer drug set is available from the Developmental Therapeutics Program at https://dtp.cancer.gov/organization/dscb/obtaining/available_plates.htm. […] The stock solutions were prepared in dimethyl sulfoxide (DMSO, Sigma-Aldrich, St. Louis, MO, cat. D2650) at 400-fold the tested concentration and stored at -70 degrees C. Prior to their use, the stock solutions were diluted in fresh medium and the final DMSO concentration in the assay was 0.25% (v/v). All drugs and investigational agents were tested over a range starting from a high concentration at or near the clinical Cmax and decreasing in half-log increments. If the clinical Cmax for an agent had not been determined, the highest concentration tested was 10 microM.
Cell Lines. The patient-derived cancer cell (PDC) lines: 156681-154-R-J1-PDC, 283228-195-R-J1-PDC, 287954-098-R-J1-PDC, 292921-168-R-J2-PDC, 349418-098-R-PDC, 425362-245-T-J1-PDC, 556581-035-R-J1-PDC, and BL0293-F563-PDC were received from the NCI Patient-Derived Models Repository (PDMR, https://pdmr.cancer.gov). The established cell lines HS-SY-2 (RRID:CVCL_8719), MPNST, and SYO-1 (RRID:CVCL_7146) were obtained from the Sloan Kettering Institute. The alveolar soft parts sarcoma cell line ASPS-1 (RRID:CVCL_S738) was established at the NCI and grown from internal seed stocks. The following established cell lines were purchased from the American Type Culture Collection (ATCC, Manassas, VA): G-401 (ATCC, cat. CRL-1441, RRID:CVCL_0270), SW982 (ATCC, cat. HTB-93, RRID:CVCL_1734), VA-ES-BJ (ATCC, cat. CRL-2138, RRID:CVCL_1785), NCI-H719 (ATCC, cat. CRL-5837, RRID:CVCL_1582), NCI-H196 (ATCC, cat. CRL-5823, RRID:CVCL_1509), NCI-H841 (ATCC, cat. CRL-5845, RRID:CVCL_1595), NCI-H1618 (ATCC, cat. CRL-5879, RRID:CVCL_1480), NCI-H1876 (ATCC, cat. CRL-5902, RRID:CVCL_1503), DMS 114 (ATCC, cat. CRL-2066; RRID:CVCL_1174), NCI-H211 (ATCC, cat. CRL-5824; RRID:CVCL_1529), and SW 1271 (ATCC, cat. CRL-2177, RRID:CVCL_1716). The small cell lung cancer cell line COR-L88 was purchased from Sigma-Aldrich (cat. 92031917-1VL, RRID:CVCL_1141). The non-small cell lung cancer cell lines NCI-H226 (RRID:CVCL_1544) and NCI-H322M (RRID:CVCL_1557) were established at the NCI and grown from internal seed stocks. Pooled donor human umbilical vein endothelial cells (HUVEC, Lonza, cat. CC-2519) and human mesenchymal stem cells (hMSC, Lonza, cat. PT-2501) were purchased from Lonza (Walkersville, MD).
Cell Culture. All cells were maintained in an incubator at 37 degrees C and 5% CO2 with 95% humidity. […]

[1] = second compound 0.003 µM, first compound 0.00949 µM
[2] = second compound 0.003 µM, first compound 0.03 µM
[3] = second compound 0.003 µM, first compound 0.0949 µM
[4] = second compound 0.003 µM, first compound 0.3 µM
[5] = second compound 0.003 µM, first compound 0.949 µM
[6] = second compound 0.003 µM, first compound 3 µM
[7] = second compound 0.00949 µM, first compound 0.00949 µM
[8] = second compound 0.00949 µM, first compound 0.03 µM
[9] = second compound 0.00949 µM, first compound 0.0949 µM
[10] = second compound 0.00949 µM, first compound 0.3 µM
[11] = second compound 0.00949 µM, first compound 0.949 µM
[12] = second compound 0.00949 µM, first compound 3 µM
[13] = second compound 0.03 µM, first compound 0.00949 µM
[14] = second compound 0.03 µM, first compound 0.03 µM
[15] = second compound 0.03 µM, first compound 0.0949 µM
[16] = second compound 0.03 µM, first compound 0.3 µM
[17] = second compound 0.03 µM, first compound 0.949 µM
[18] = second compound 0.03 µM, first compound 3 µM
[19] = second compound 0.0949 µM, first compound 0.00949 µM
[20] = second compound 0.0949 µM, first compound 0.03 µM
[21] = second compound 0.0949 µM, first compound 0.0949 µM
[22] = second compound 0.0949 µM, first compound 0.3 µM
[23] = second compound 0.0949 µM, first compound 0.949 µM
[24] = second compound 0.0949 µM, first compound 3 µM
[25] = second compound 0.3 µM, first compound 0.00949 µM
[26] = second compound 0.3 µM, first compound 0.03 µM
[27] = second compound 0.3 µM, first compound 0.0949 µM
[28] = second compound 0.3 µM, first compound 0.3 µM
[29] = second compound 0.3 µM, first compound 0.949 µM
[30] = second compound 0.3 µM, first compound 3 µM

Structure (SMILES)	IC50 (second compound 0.003 µM) [nM]	IC50 (second compound 0.00949 µM) [nM]	IC50 (second compound 0.03 µM) [nM]	IC50 (second compound 0.0949 µM) [nM]	IC50 (second compound 0.3 µM) [nM]	viability, T/C [3] [%]	viability, T/C [4] [%]	viability, T/C [5] [%]	viability, T/C [6] [%]	viability, T/C [9] [%]	viability, T/C [10] [%]	viability, T/C [11] [%]	viability, T/C [12] [%]	viability, T/C [15] [%]	viability, T/C [16] [%]	viability, T/C [17] [%]	viability, T/C [18] [%]	viability, T/C [21] [%]	viability, T/C [22] [%]	viability, T/C [23] [%]	also measured
CNCc1ccc(-c2cc(-c3nc(-c4ccc(S(=O)(=O)C(C)C)cc4)cnc3N)on2)cc1 + CC[C@@]1(O)C(=O)OCc2c1cc1n(c2=O)Cc2cc3c(CN(C)C)c(O)ccc3nc2-1	56.1	< 9.49	< 9.49	< 9.49	< 9.49	25.8	5.41	1.29	0.44	7.71	1.95	1	0.31	1.25	1.64	0.71	0.17	0.92	0.89	0.76	viability, T/C [1]: 89.3%; viability, T/C [2]: 78.7%; viability, T/C [7]: 49.2%; viability, T/C [8]: 35.6%; viability, T/C [13]: 1.53%; viability, T/C [14]: 4.09%; viability, T/C [19]: 1.32%; viability, T/C [20]: 3.66%; viability, T/C [24]: 0.15%; viability, T/C [25]: 1.45%; viability, T/C [26]: 1.41%; viability, T/C [27]: 1.07%; viability, T/C [28]: 0.61%; viability, T/C [29]: 2.25%; viability, T/C [30]: 0.16%
Cc1sc2c(c1C)C(c1ccc(Cl)cc1)=NC(CC(=O)Nc1ccc(O)cc1)c1nnc(C)n1-2 (stereo not given) + CC[C@@]1(O)C(=O)OCc2c1cc1n(c2=O)Cc2cc3c(CN(C)C)c(O)ccc3nc2-1	152	12.7	< 9.49	< 9.49	< 9.49	66.2	26.5	6.68	1.61	27.9	4.81	1.04	0.47	0.85	0.58	0.55	0.5	0.98	0.78	0.62	viability, T/C [1]: 88%; viability, T/C [2]: 85%; viability, T/C [7]: 63.4%; viability, T/C [8]: 9.92%; viability, T/C [13]: 1.92%; viability, T/C [14]: 4.07%; viability, T/C [19]: 1.59%; viability, T/C [20]: 1.44%; viability, T/C [24]: 5.05%; viability, T/C [25]: 1.48%; viability, T/C [26]: 1.46%; viability, T/C [27]: 1.06%; viability, T/C [28]: 0.57%; viability, T/C [29]: 0.28%; viability, T/C [30]: 0.2%
Cn1ncnc1[C@H]1c2n[nH]c(=O)c3cc(F)cc(c23)N[C@@H]1c1ccc(F)cc1 + CC[C@@]1(O)C(=O)OCc2c1cc1n(c2=O)Cc2cc3c(CN(C)C)c(O)ccc3nc2-1	< 9.49	< 9.49	< 9.49	< 9.49	< 9.49	29.9	8.52	1.44	1.96	2.55	1.48	1.52	2.21	1.39	1.4	1.41	1.81	1.61	1.69	1.52	viability, T/C [1]: 47.7%; viability, T/C [2]: 40.1%; viability, T/C [7]: 5.87%; viability, T/C [8]: 2.75%; viability, T/C [13]: 1.67%; viability, T/C [14]: 1.74%; viability, T/C [19]: 1.86%; viability, T/C [20]: 1.68%; viability, T/C [24]: 1.31%; viability, T/C [25]: 0.97%; viability, T/C [26]: 0.99%; viability, T/C [27]: 0.94%; viability, T/C [28]: 0.9%; viability, T/C [29]: 0.63%; viability, T/C [30]: 0.52%
O=C(c1cc(Cc2n[nH]c(=O)c3ccccc23)ccc1F)N1CCN(C(=O)C2CC2)CC1 + CC[C@@]1(O)C(=O)OCc2c1cc1n(c2=O)Cc2cc3c(CN(C)C)c(O)ccc3nc2-1	1480	< 94.9	< 94.9	< 94.9	< 94.9	79.5	75.1	60.5	33.6	19.2	17.4	12.7	3.98	1.3	1.56	1.06	1.3	7.65	1.58	1.52	viability, T/C (second compound 0.003 µM, first compound 9.49 µM): 6.04%; viability, T/C (second compound 0.003 µM, first compound 30 µM): 2.34%; viability, T/C (second compound 0.00949 µM, first compound 9.49 µM): 7.48%; viability, T/C (second compound 0.00949 µM, first compound 30 µM): 2.29%; viability, T/C (second compound 0.03 µM, first compound 9.49 µM): 1.43%; viability, T/C (second compound 0.03 µM, first compound 30 µM): 1.97%; viability, T/C [24]: 1.38%; viability, T/C (second compound 0.0949 µM, first compound 9.49 µM): 1.27%; viability, T/C (second compound 0.0949 µM, first compound 30 µM): 1.95%; viability, T/C [27]: 0.94%; viability, T/C [28]: 1.16%; viability, T/C [29]: 0.93%; viability, T/C [30]: 0.82%; viability, T/C (second compound 0.3 µM, first compound 9.49 µM): 0.61%; viability, T/C (second compound 0.3 µM, first compound 30 µM): 0.6%
